# Measurements: ChEMBL document CHEMBL1126135, “N-(1-oxododecyl)-4 alpha,10-dimethyl-8-aza-trans-decal-3 beta-ol: a potent competitive inhibitor of 2,3-oxidosqualene cyclase” (J Med Chem, 1992)
# pIC50: −log10 of the molar value.
# How the values were obtained:
# HepG2 = assay: Compound was tested for inhibition of cholesterol biosynthesis in HepG2 cells from [14C]- acetate; format: functional, cell-based; conditions: Homo sapiens
# Lanosterol synthase = biological target: T1, Lanosterol synthase (Rattus norvegicus, UniProt P48450); assay: Inhibitory activity against Oxidosqualene-lanosterol cyclase enzyme obtained from rat liver; d = in a microsomal assay fails to inhibit OSC (Oxidosqualene cyclase); format: microsomes, Microsome
# T1 sequence (P48450 whole entry): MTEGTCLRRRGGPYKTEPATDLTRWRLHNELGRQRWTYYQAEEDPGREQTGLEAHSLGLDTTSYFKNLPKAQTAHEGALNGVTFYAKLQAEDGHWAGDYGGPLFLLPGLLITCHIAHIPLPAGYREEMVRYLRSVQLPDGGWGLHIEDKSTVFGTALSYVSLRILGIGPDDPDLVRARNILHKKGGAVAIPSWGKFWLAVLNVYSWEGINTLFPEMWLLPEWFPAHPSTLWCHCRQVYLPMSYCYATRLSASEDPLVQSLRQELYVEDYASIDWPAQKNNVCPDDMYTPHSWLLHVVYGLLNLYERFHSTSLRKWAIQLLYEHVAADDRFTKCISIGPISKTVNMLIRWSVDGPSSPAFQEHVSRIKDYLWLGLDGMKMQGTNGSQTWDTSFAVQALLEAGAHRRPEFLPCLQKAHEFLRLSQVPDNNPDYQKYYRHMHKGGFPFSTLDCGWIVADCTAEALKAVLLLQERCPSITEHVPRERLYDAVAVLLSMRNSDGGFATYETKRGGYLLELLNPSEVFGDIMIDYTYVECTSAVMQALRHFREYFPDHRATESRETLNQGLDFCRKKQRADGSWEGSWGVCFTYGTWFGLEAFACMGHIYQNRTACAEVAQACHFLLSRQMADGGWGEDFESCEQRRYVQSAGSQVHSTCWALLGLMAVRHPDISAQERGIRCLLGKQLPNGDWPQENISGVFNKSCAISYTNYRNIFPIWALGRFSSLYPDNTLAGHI
pIC50 (HepG2),Compound,IC50 (Lanosterol synthase)
5.55,CCCCCCCCCCCC[S+]([O-])N1CC[C@H]2[C@H](C)[C@@H](O)CC[C@]2(C)C1 (stereo not given in full),–
4.28,CCCCCCCCCCCCS(=O)(=O)N1CC[C@H]2[C@H](C)[C@@H](O)CC[C@]2(C)C1,–
5.70,CCCCCCCCCCCC(=S)N1CC[C@H]2[C@H](C)[C@@H](O)CC[C@]2(C)C1,–
6.15,CCCCCCCCCCCC(=O)N1CC[C@H]2[C@H](C)[C@@H](O)CC[C@]2(C)C1,–
8.00,CCCCCCCCCCCCN1CC[C@H]2[C@H](C)[C@@H](O)CC[C@]2(C)C1,–

# Second part, the compound before the results:
Compound,pIC50 (HepG2),IC50 (Lanosterol synthase)
CC(C)CCCC(C)CCCC(C)N1CC[C@H]2[C@H](C)[C@@H](O)CC[C@]2(C)C1 (stereo not given in full),7.15,–
CC1(C)[C@@H](O)CC[C@]2(C)CCCC[C@@H]12,4.55,–
CC(=O)N1CC[C@H]2[C@H](C)[C@@H](O)CC[C@]2(C)C1,< 4.00,–
C[C@@H]1[C@@H](O)CC[C@]2(C)CNCC[C@@H]12,4.72,No inhibition
